The target of the assay is human Nav1.8 (Homo sapiens (Human), UniProt Q9Y5Y9). Briefly: Nav1.8 Qube automated patch-clamp assay. Particulars: Nav1.8 Qube Assay; human Nav1.8 channels stably expressed in HEK 293 cells. Format: cell-based. As for the experimental part:
Qube® Assay Experimental Procedure
Compounds were tested on human Nav1.8 and Nav1.5 channels stably expressed in human embryo kidney (HEK) 293 cells. Sodium current measurements on Qube® were conducted as follows: automated 384-well patch-clamp assays on the Qube® platform (Sophion Biosciences) were used to measure the inhibition of sodium flow through human Nav1.8 and Nav1.5 channels. Whole-cell voltage-clamp recordings were performed in QChips® (Sophion Biosciences) at room temperature. Nav1.8 current measurements on Qube® were obtained as follows: Nav1.8 currents were elicited with a 10 second 1 Hertz (Hz) pulse train from a holding potential of −90 millivolts (mV), delivered to the cells once per minute in the control condition (DMSO only) and after compound addition. The 1 hertz pulse train stimulation consisted of ten test pulses to 10 millivolt (mV) for 20 milliseconds (ms), each of which was followed by a 980 millisecond repolarization to −67 millivolts. At the end of the 10 second pulse train stimulation, a 5 second hyperpolarization step to −100 millivolt (mV) was used to recover Nav1.8 from fast inactivation. The peak currents elicited by the 1st and 10th test pulses were used to determine IC50 values for resting inhibition and inactivated state inhibition. Nav1.5 current measurements on Qube® were obtained as follows: Nav1.5 currents were elicited with a 20 second 3 Hertz pulse train in the control condition (DMSO only) and after compound addition. The pulse train consisted of sixty 20 millisecond test pulses to 0 millivolt from a holding potential of −80 millivolt (mV). The average peak currents elicited by the last 3 test pulses were used to determine IC50 values for Nav1.5 inhibition.
The following buffers were used for the Qube® recordings: External buffer for Nav1.8 Qube® recording: 150 NaCl, 2 CaCl2, 5 KCl, 1 Mg Cl2, 10 HEPES, 12 Dextrose; External buffer for Qube® Nav1.5 recording: 120 N-Methyl-D-Glucamine, 40 NaCl, 1 KCl, 2.7 CaCl2, 5 HEPES, 0.5 MgCl2; and Internal buffer for Qube® recording: 120 CsF, 30 CsCl, 10 EGTA, 5 HEPES, 5 NaF, 2 MgCl2.
For all Qube® experiments offline analysis was used to determine percent inhibition as a function of drug concentration. IC50 values were determined by fitting to the Hill equation.

Sequence of human Nav1.8 (Q9Y5Y9 whole entry): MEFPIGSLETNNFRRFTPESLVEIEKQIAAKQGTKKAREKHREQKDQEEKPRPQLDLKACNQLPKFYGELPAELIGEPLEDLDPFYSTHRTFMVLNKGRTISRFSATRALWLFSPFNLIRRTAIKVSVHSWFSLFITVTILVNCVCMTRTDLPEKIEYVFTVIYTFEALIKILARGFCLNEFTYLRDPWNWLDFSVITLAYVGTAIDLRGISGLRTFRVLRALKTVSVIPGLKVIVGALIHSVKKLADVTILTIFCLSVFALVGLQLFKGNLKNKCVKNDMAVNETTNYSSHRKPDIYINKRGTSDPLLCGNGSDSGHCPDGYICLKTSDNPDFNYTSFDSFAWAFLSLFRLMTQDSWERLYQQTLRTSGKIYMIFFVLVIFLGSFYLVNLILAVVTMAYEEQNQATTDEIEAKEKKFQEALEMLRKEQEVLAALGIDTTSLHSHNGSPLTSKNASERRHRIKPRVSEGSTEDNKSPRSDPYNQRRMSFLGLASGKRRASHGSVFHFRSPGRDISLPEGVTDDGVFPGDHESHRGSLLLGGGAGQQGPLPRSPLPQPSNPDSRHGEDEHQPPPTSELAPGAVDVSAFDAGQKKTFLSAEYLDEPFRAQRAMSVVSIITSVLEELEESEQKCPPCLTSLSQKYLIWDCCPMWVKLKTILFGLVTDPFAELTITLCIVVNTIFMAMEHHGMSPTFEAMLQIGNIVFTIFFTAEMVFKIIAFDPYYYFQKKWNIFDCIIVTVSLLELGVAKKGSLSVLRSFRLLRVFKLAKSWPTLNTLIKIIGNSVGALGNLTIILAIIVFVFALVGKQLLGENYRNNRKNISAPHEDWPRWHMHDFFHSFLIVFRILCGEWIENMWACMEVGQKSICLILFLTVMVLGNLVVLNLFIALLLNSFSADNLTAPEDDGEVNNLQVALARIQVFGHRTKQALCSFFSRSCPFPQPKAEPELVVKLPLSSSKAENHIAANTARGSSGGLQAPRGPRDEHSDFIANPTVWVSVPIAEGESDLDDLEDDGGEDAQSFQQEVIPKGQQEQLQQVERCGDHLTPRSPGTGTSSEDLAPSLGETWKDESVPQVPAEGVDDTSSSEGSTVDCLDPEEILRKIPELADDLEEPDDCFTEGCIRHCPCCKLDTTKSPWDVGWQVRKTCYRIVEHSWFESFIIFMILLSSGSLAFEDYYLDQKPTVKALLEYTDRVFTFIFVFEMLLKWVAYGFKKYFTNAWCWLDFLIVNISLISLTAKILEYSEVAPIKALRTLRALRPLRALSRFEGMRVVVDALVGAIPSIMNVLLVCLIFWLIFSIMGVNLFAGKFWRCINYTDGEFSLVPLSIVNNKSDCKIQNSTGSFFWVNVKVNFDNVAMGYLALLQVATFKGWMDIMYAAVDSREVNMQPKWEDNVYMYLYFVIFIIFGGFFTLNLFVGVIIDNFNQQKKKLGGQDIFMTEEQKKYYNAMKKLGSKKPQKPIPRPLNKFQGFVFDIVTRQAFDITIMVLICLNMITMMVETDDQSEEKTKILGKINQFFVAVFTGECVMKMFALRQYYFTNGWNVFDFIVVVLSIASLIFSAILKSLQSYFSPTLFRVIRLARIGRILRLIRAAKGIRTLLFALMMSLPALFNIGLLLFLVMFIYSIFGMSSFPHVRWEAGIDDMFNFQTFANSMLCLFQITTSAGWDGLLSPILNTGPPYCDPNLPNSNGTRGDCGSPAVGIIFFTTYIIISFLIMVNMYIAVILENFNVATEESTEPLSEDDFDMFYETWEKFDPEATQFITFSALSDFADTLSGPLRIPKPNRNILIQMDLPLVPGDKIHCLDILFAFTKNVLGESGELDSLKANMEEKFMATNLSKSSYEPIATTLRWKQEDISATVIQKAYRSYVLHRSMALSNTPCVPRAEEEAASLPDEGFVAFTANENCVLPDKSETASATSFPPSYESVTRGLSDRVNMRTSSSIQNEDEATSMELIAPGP

The compound `Cc1nc(N2CCCCCC2)c(C(=O)Nc2cccc(S(N)(=O)=O)c2)cc1Cl` [Example 26, 2-(azepan-1-yl)-5-chloro-6-methyl-N-(3-sulfamoylphenyl)nicotinanmide] gave an IC50 of 2.1 nM.

As to `NC(=O)c1cccc(NC(=O)c2cc(C(F)(F)F)cnc2N2CCC3(CC3)C(F)(F)C2)c1` [Example 109, N-(3-carbamoylphenyl)-2-(8,8-difluoro-6-aza-spiro[2.5]octan-6-yl)-5-(trifluoro-methyl)-pyridine-3-carboxamide], the IC50 was 860 nM.

The compound `CC12CCN(c3ncc(C(F)(F)F)cc3C(=O)Nc3cccc(S(N)(=O)=O)c3)CC1C2(F)F` (single isomer, unassigned) [Example 128, 2-[(1R,6R or 1S,6S)-7,7-difluoro-6-methyl-3-azabicyclo[4.1.0]heptan-3-yl]-N-(3-sulfamoyl-phenyl)-5-(trifluoro-methyl)-pyridine-3-carboxamide] registered an IC50 of 14 nM. Against the preceding compound, the IC50 is about 61-fold lower.

In the case of `Cc1nc(N2CCCCCC2)c(C(=O)Nc2cccc(S(N)(=O)=O)c2)c(C)c1Cl` [Example 2, 2-(azepan-1-yl)-5-chloro-4,6-dimethyl-N-(3-sulfamoylphenyl)nicotinamide], the IC50 was determined as 0.7 nM. Against the preceding compound, the IC50 is about 20-fold lower.

The compound `C[C@@H]1CN(c2ncc(C(F)(F)F)cc2C(=O)Nc2cccc(S(N)(=O)=O)c2)C[C@@H](C(F)(F)F)O1` [Example 146, 2-[(2R,6S)-2-methyl-6-(trifluoromethyl)morpholin-4-yl]-N-(3-sulfamoylphenyl)-5-(trifluoromethyl) pyridine-3-carboxamide] gave an IC50 of 26 nM. Compared with the last compound, the IC50 is about 37-fold higher.

Compound `NS(=O)(=O)c1cccc(NC(=O)c2cc(C(F)(F)F)cnc2N2CCC(F)(F)CC2)c1` [Example 1, 2-(4,4-difluoropiperidin-1-yl)-N-(3-sulfamoylphenyl)-5-(trifluoromethyl)nicotinamide] returned an IC50 of 47 nM.

Turning to `NS(=O)(=O)c1cccc(NC(=O)c2cc(C(F)(F)F)cnc2N2CCCC2)c1` [Example 63, 2-pyrrolidin-1-yl-N-(3-sulfamoylphenyl)-5-(trifluoromethyl)pyridine-3-carboxamide], the IC50 is 2000 nM.

On to `Cc1nc(N2CCCCCC2)c(C(=O)Nc2cccc(S(N)(=O)=O)c2)cc1C#N` [Example 157, 2-(azepan-1-yl)-5-cyano-6-methyl-N-(3-sulfamoylphenyl)-pyridine-3-carboxamide], for which the IC50 came to 10 nM.

The compound `Cc1nc2c(o1)CCN(c1ncc(C(F)(F)F)cc1C(=O)Nc1cccc(S(N)(=O)=O)c1)C2` [Example 73, 2-(2-methyl-6,7-dihydro-4H-oxazolo[4,5-c]pyridin-5-yl)-N-(3-sulfamoyl-phenyl)-5-(trifluoro-methyl)pyridine-3-carboxamide] registered an IC50 of 8390 nM. Compared with the last compound, the IC50 is about 840-fold higher.

On to `COC(=O)C1CCCN(c2ncc(C(F)(F)F)cc2C(=O)Nc2cccc(S(N)(=O)=O)c2)CC1` (stereo not shown) [Example 48, methyl 1-[3-[(3-sulfamoylphenyl)-carbamoyl]-5-(tri-fluoromethyl)-2-pyridyl]azepane-4-carboxylate], for which the IC50 is 161 nM.

Compound `Cc1ccc(-c2cnc(N3CCCCC3)c(C(=O)Nc3cccc(S(N)(=O)=O)c3)c2)cc1` [Example 27, 2-(piperidin-1-yl)-N-(3-sulfamoylphenyl)-5-(p-tolyl)nicotinamide] registered an IC50 of 4430 nM.

In turn, `NS(=O)(=O)c1cccc(NC(=O)c2cc(OC(F)(F)F)cnc2N2CCCC(F)(F)CC2)c1` [Example 39, 2-(4,4-difluoroazepan-1-yl)-N-(3-sulfamoylphenyl)-5-(trifluoromethoxy)nicotinamide] gave an IC50 of 2.5 nM. Compared with the last compound, the IC50 is about 1800-fold lower.

In the case of `NS(=O)(=O)c1cccc(NC(=O)c2cnc(C3CC3)nc2N2CCCC(F)(F)CC2)c1` [Example 180, 2-cyclopropyl-4-(4,4-difluoroazepan-1-yl)-N-(3-sulfamoylphenyl)pyrimidine-5-carboxamide], half-maximal inhibition (IC50) required 24 nM.

Compound `NS(=O)(=O)c1cccc(NC(=O)c2cc(C(F)(F)F)cnc2N2CCC(F)C2)c1` (stereo not shown) [Example 62, 2-(3-fluoropyrrolidin-1-yl)-N-(3-sulfamoyl-phenyl)-5-(trifluoro-methyl)pyridine-3-carboxamide] gave an IC50 of 1830 nM.

Consider `NC(=O)c1cccc(NC(=O)c2cc(C(F)(F)C(F)(F)F)cnc2N2CCCCCC2)c1` [Example 167, 2-(azepan-1-yl)-N-(3-carbamoylphenyl)-5-(1,1,2,2,2-penta-fluoroethyl)pyridine-3-carboxamide], for which half-maximal inhibition (IC50) required 85 nM.

For the compound `CC1CN(c2ncc(C(F)(F)F)cc2C(=O)Nc2cccc(S(N)(=O)=O)c2)CCC1(F)F` (single isomer, unassigned) [Example 123, (R or S)-2-(4,4-Difluoro-3-methylpiperidin-1-yl)-N-(3-sulfamoylphenyl)-5-(trifluoromethyl)nicotinamide], the IC50 is 3 nM.

Consider `CC(C)Cc1cnc(N2CCCCC2)c(C(=O)Nc2cccc(S(N)(=O)=O)c2)c1` [Example 153, 5-isobutyl-2-(piperidin-1-yl)-N-(3-sulfamoylphenyl)nicotinamide], for which 2240 nM corresponded to half-maximal inhibition (IC50).

`Cc1nc(N2CCCC(F)(F)CC2)c(C(=O)Nc2cccc(S(C)(=O)=O)c2)cc1C#N` [Example 176, 5-cyano-2-(4,4-difluoroazepan-1-yl)-6-methyl-N-(3-methyl-sulfonylphenyl) pyridine-3-carboxamide]: the IC50 is 7.3 nM.

`CS(=O)(=O)c1cccc(NC(=O)c2cc(C(F)(F)F)cnc2N2CCC(F)CC2)c1` [Example 100, 2-(4-fluoro-1-piperidyl)-N-(3-methylsulfonylphenyl)-5-(trifluoromethyl)-pyridine-3-carboxamide]: the IC50 was found to be 227 nM.

Compound `C[C@@H]1CN(c2ncc(C(F)(F)F)cc2C(=O)Nc2cccc(S(N)(=O)=O)c2)C[C@H](C)C1(F)F` [Example 125, 2-[(3S,5R)-4,4-difluoro-3,5-dimethyl-1-piperidyl]-N-(3-sulfamoylphenyl)-5-(trifluoromethyl)-pyridine-3-carboxamide] gave an IC50 of 2.4 nM.

`NS(=O)(=O)c1cccc(NC(=O)c2cc(C(F)(F)F)cnc2N2CC3CC2CC3(F)F)c1` (single isomer, unassigned) [Example 137, 2-[(1S,4S or 1R,4R)-5,5-difluoro-2-azabicyclo-[2.2.1]heptan-2-yl]-N-(3-sulfamoylphenyl)-5-(trifluoromethyl)-pyridine-3-carboxamide] showed an IC50 of 82 nM.

In the case of `NC(=O)c1cccc(NC(=O)c2cc(C(F)(F)F)cnc2N2CCCCCCC2)c1` [Example 107, 2-(azocan-1-yl)-N-(3-carbamoylphenyl)-5-(trifluoromethyl)-pyridine-3-carboxamide], it took 73 nM to reach half-maximal inhibition (IC50). This IC50 and that of the compound before are within 1.5-fold of each other.

For the compound `C[C@H]1CN(c2ncc(C(F)(F)F)cc2C(=O)Nc2cccc(S(N)(=O)=O)c2)C[C@@H](C(F)(F)F)O1` [Example 148, 2-[(2S,6S)-2-methyl-6-(trifluoromethyl)-morpholin-4-yl]-N-(3-sulfamoylphenyl)-5-(trifluoromethyl) pyridine-3-carboxamide], the IC50 turned out to be 113 nM.

`NS(=O)(=O)c1cccc(NC(=O)c2c(Br)ccnc2N2CCCCCC2)c1` [Example 33, 2-(azepan-1-yl)-4-bromo-N-(3-sulfamoyl-phenyl)pyridine-3-carboxamide] returned a half-maximal inhibitory concentration (IC50) of 44 nM.

Consider `NS(=O)(=O)c1cccc(NC(=O)c2cc(C(F)(F)F)cnc2N2CCO[C@@H](C(F)(F)F)C2)c1` [Example 141, N-(3-sulfamoylphenyl)-5-(trifluoromethyl)-2-[(2R)-2-(trifluoro-methyl)morpholin-4-yl]pyridine-3-carboxamide], for which the IC50 worked out at 553 nM.
